In ChEMBL document CHEMBL6153110, “Peptide Double-Stapling and Arginine N-Glycosylation Triggered the Development of Therapeutic Antimicrobial Peptides Capable of Killing Drug-Resistant Bacteria in Mice” (J Med Chem, 2025):
In brackets after ≈: the same amount, converted by molar mass. Starred links: 1 amine or outer side, 2 acyl side, 3 side chain; linkers in the order of their positions; H or OH if unused. Positions of bridges follow the written chain, without caps; N, C: chain ends. Non-standard residues stand in square brackets, D forms with d. Residues, ends and D or L forms follow the SMILES beside them. X1 = N=C(NCCC[C@H](N[*:1])C(=O)[*:2])N[C@@H]1O[C@H](CO)[C@@H](O[C@H]2O[C@H](CO)[C@@H](O[C@H]3O[C@H](CO)[C@@H](O)[C@H](O)[C@H]3O)[C@H](O)[C@H]2O)[C@H](O)[C@H]1O; X2 = CC(=O)N[C@@H]1[C@@H](O)[C@H](O)[C@@H](CO)O[C@H]1NC(=N)NCCC[C@H](N[*:1])C(=O)[*:2]; S5 = C=CCCC[C@](C)(N)C(=O)O

Tests used:
Staphylococcus aureus = assay: Antimicrobial activity against methicillin-resistant Staphylococcus aureus ATCC 43300 assessed as growth inhibition measured after 8 hrs incubation by standard broth dilution assay; assay type: functional
[1] = Hemolytic activity in BALB/c mouse red blood cells assessed as hemolysis incubated for 1 hrs; assay type: toxicity, cell-based, Erythrocyte; details: read-out: HD50
Pseudomonas aeruginosa = assay: Antimicrobial activity against Pseudomonas aeruginosa ATCC 27853 assessed as growth inhibition measured after 8 hrs incubation by standard broth dilution assay; assay type: functional
Klebsiella pneumoniae = assay: Antimicrobial activity against Klebsiella pneumoniae ATCC 13883 assessed as growth inhibition measured after 8 hrs incubation by standard broth dilution assay; assay type: functional
Streptococcus pneumoniae = assay: Antimicrobial activity against Streptococcus pneumoniae ATCC 49619 assessed as growth inhibition measured after 8 hrs incubation by standard broth dilution assay; assay type: functional

| Structure (SMILES) | MIC (Staphylococcus aureus) | HC50 at 1 h [1] | MIC (Pseudomonas aeruginosa) | MIC (Klebsiella pneumoniae) | MIC (Streptococcus pneumoniae) |
| --- | --- | --- | --- | --- | --- |
| CC(=O)N[C@@H](CC(C)C)C(=O)N[C@@H](CCCCN)C(=O)N[C@@H](CCCNC(=N)N)C(=O)N[C@H](C(=O)N[C@@H](Cc1c[nH]c2ccccc12)C(=O)N[C@@H](CCCCN)C(=O)N[C@@H](CCCNC(=N)N)C(=O)N[C@H](C(=O)N[C@@H](Cc1ccccc1)C(=O)N[C@@H](CCCCN)C(=O)N[C@@H](CC(C)C)C(=O)N[C@@H](CC(C)C)C(=O)N[C@@H](CCCCN)C(=O)N[C@@]1(C)CCC/C=C\CCC[C@@](C)(C(=O)N[C@@H](CC(C)C)C(=O)N[C@@H](CCCCN)C(=O)N[C@@H](CCCCN)C(=O)N2CCC[C@H]2C(=O)N[C@@H](CCCCN)C(=O)N[C@@H](CCCNC(=N)N)C(N)=O)NC(=O)[C@H](CCCNC(=N)N)NC(=O)[C@H](Cc2c[nH]c3ccccc23)NC(=O)[C@H](Cc2ccc(O)cc2)NC1=O)C(C)C)C(C)C (Ac-LKRVWKRVFKLLK[S5]YWR[S5]LKKPKR-NH2; staple (Z) 14-18) | 4.9 µg/mL (≈ 1.5 µM) | 8.9 µg/mL | 5 µg/mL (≈ 1.53 µM) | 19.2 µg/mL (≈ 5.89 µM) | 4.7 µg/mL (≈ 1.44 µM) |
| CC(=O)N[C@@H](CC(C)C)C(=O)N[C@@H](CCCCN)C(=O)N[C@@H](CCCNC(=N)N)C(=O)N[C@@H](CCCCN)C(=O)N[C@@H](Cc1c[nH]c2ccccc12)C(=O)N[C@@H](CCCCN)C(=O)N[C@@H](CCCNC(=N)N)C(=O)N[C@H](C(=O)N[C@@H](Cc1ccccc1)C(=O)N[C@@H](CCCCN)C(=O)N[C@@H](CC(C)C)C(=O)N[C@@H](CC(C)C)C(=O)N[C@@H](CCCCN)C(=O)N[C@@]1(C)CCC/C=C\CCC[C@@](C)(C(=O)N[C@@H](CC(C)C)C(=O)N[C@@H](CCCCN)C(=O)N[C@@H](CCCCN)C(=O)N2CCC[C@H]2C(=O)N[C@H](C(=O)N[C@@H](CCCNC(=N)N)C(N)=O)C(C)C)NC(=O)[C@H](CCCNC(=N)N)NC(=O)[C@H](Cc2c[nH]c3ccccc23)NC(=O)[C@H](Cc2ccc(O)cc2)NC1=O)C(C)C (Ac-LKRKWKRVFKLLK[S5]YWR[S5]LKKPVR-NH2; staple (Z) 14-18) | 4.9 µg/mL (≈ 1.5 µM) | 9.9 µg/mL | 5 µg/mL (≈ 1.53 µM) | 10.1 µg/mL (≈ 3.1 µM) | 2.4 µg/mL (≈ 0.736 µM) |
| CC(=O)N[C@@H](CC(C)C)C(=O)N[C@@H](CCCCN)C(=O)N[C@@H](CCCNC(=N)N)C(=O)N[C@H](C(=O)N[C@@H](Cc1c[nH]c2ccccc12)C(=O)N[C@@H](CCCCN)C(=O)N[C@@H](CCCNC(=N)N)C(=O)N[C@H](C(=O)N[C@@H](Cc1ccccc1)C(=O)N[C@@H](CCCCN)C(=O)N[C@@H](CC(C)C)C(=O)N[C@@H](CC(C)C)C(=O)N[C@@H](CCCCN)C(=O)N[C@@]1(C)CCC/C=C\CCC[C@@](C)(C(=O)N[C@@H](CCCCN)C(=O)N[C@@H](CCCCN)C(=O)N[C@@H](CCCCN)C(=O)N2CCC[C@H]2C(=O)N[C@H](C(=O)N[C@@H](CCCNC(=N)N)C(N)=O)C(C)C)NC(=O)[C@H](CCCNC(=N)N)NC(=O)[C@H](Cc2c[nH]c3ccccc23)NC(=O)[C@H](Cc2ccc(O)cc2)NC1=O)C(C)C)C(C)C (Ac-LKRVWKRVFKLLK[S5]YWR[S5]KKKPVR-NH2; staple (Z) 14-18) | 10.1 µg/mL (≈ 3.11 µM) | 10.8 µg/mL | 5 µg/mL (≈ 1.54 µM) | 19 µg/mL (≈ 5.85 µM) | 4.7 µg/mL (≈ 1.45 µM) |
| CC(=O)N[C@@H](CC(C)C)C(=O)N[C@@H](CCCCN)C(=O)N[C@@H](CCCNC(=N)N)C(=O)N[C@H](C(=O)N[C@@H](Cc1c[nH]c2ccccc12)C(=O)N[C@@H](CCCCN)C(=O)N[C@@H](CCCNC(=N)N)C(=O)N[C@@H](CCCCN)C(=O)N[C@@H](Cc1ccccc1)C(=O)N[C@@H](CCCCN)C(=O)N[C@@H](CC(C)C)C(=O)N[C@@H](CC(C)C)C(=O)N[C@@H](CCCCN)C(=O)N[C@@]1(C)CCC/C=C\CCC[C@@](C)(C(=O)N[C@@H](CC(C)C)C(=O)N[C@@H](CCCCN)C(=O)N[C@@H](CCCCN)C(=O)N2CCC[C@H]2C(=O)N[C@H](C(=O)N[C@@H](CCCNC(=N)N)C(N)=O)C(C)C)NC(=O)[C@H](CCCNC(=N)N)NC(=O)[C@H](Cc2c[nH]c3ccccc23)NC(=O)[C@H](Cc2ccc(O)cc2)NC1=O)C(C)C (Ac-LKRVWKRKFKLLK[S5]YWR[S5]LKKPVR-NH2; staple (Z) 14-18) | 10.1 µg/mL (≈ 3.1 µM) | 32.3 µg/mL | 5 µg/mL (≈ 1.53 µM) | 10.1 µg/mL (≈ 3.1 µM) | 2.4 µg/mL (≈ 0.736 µM) |
| CC(=O)N[C@@H]1[C@@H](O)[C@H](O)[C@@H](CO)O[C@H]1NC(=N)NCCC[C@H](NC(=O)[C@H](CCCCN)NC(=O)[C@H](CC(C)C)NC(C)=O)C(=O)N[C@H](C(=O)N[C@@H](Cc1c[nH]c2ccccc12)C(=O)N[C@@H](CCCCN)C(=O)N[C@@H](CCCNC(=N)N)C(=O)N[C@H](C(=O)N[C@@H](Cc1ccccc1)C(=O)N[C@@H](CCCCN)C(=O)N[C@@H](CC(C)C)C(=O)N[C@@H](CC(C)C)C(=O)N[C@@H](CCCCN)C(=O)N[C@@H](CCCNC(=N)N)C(=O)N[C@@H](Cc1ccc(O)cc1)C(=O)N[C@@H](Cc1c[nH]c2ccccc12)C(=O)N[C@@H](CCCNC(=N)N)C(=O)N[C@@H](CCC(N)=O)C(=O)N[C@@H](CC(C)C)C(=O)N[C@@H](CCCCN)C(=O)N[C@@H](CCCCN)C(=O)N1CCC[C@H]1C(=O)N[C@H](C(=O)N[C@@H](CCCNC(=N)N)C(N)=O)C(C)C)C(C)C)C(C)C (Ac-LK[X2]VWKRVFKLLKRYWRQLKKPVR-NH2) | 2.5 µg/mL (≈ 0.72 µM) | 45.2 µg/mL | 5 µg/mL (≈ 1.44 µM) | 38 µg/mL (≈ 10.9 µM) | 9.9 µg/mL (≈ 2.85 µM) |
| CC(=O)N[C@@H](CCCCN)C(=O)N[C@@H](CCCCN)C(=O)N[C@@H](CCCNC(=N)N)C(=O)N[C@@H](CCCCN)C(=O)N[C@@H](Cc1c[nH]c2ccccc12)C(=O)N[C@@H](CCCCN)C(=O)N[C@@H](CCCNC(=N)N)C(=O)N[C@@]1(C)CCC/C=C\CCC[C@@](C)(C(=O)N[C@@H](CCCCN)C(=O)N[C@@]2(C)CCC/C=C\CCC[C@@](C)(C(=O)N[C@@H](CC(C)C)C(=O)N[C@@H](CCCCN)C(=O)N[C@@H](CCCCN)C(=O)N3CCC[C@H]3C(=O)N[C@H](C(=O)N[C@@H](CCCNC(=N)N)C(N)=O)C(C)C)NC(=O)[C@H](CCCNC(=N)N)NC(=O)[C@H](Cc3c[nH]c4ccccc34)NC(=O)[C@H](Cc3ccc(O)cc3)NC2=O)NC(=O)[C@H](CC(C)C)NC(=O)[C@H](CCCCN)NC(=O)[C@H](Cc2ccccc2)NC1=O (Ac-KKRKWKR[S5]FKL[S5]K[S5]YWR[S5]LKKPVR-NH2; staple (Z) 8-12, 14-18) | 2.5 µg/mL (≈ 0.754 µM) | 26.5 µg/mL | 2.6 µg/mL (≈ 0.784 µM) | 10.1 µg/mL (≈ 3.05 µM) | 2.4 µg/mL (≈ 0.724 µM) |
| CC(=O)N[C@@H]1[C@@H](O)[C@H](O)[C@@H](CO)O[C@H]1NC(=N)NCCC[C@H](NC(=O)[C@@H](NC(=O)[C@@H]1CCCN1C(=O)[C@H](CCCCN)NC(=O)[C@H](CCCCN)NC(=O)[C@H](CC(C)C)NC(=O)[C@]1(C)CCC/C=C\CCC[C@](C)(NC(=O)[C@H](CCCCN)NC(=O)[C@]2(C)CCC/C=C\CCC[C@](C)(NC(=O)[C@H](CCCNC(=N)N)NC(=O)[C@H](CCCCN)NC(=O)[C@H](CCCCN)NC(=O)[C@@H](NC(=O)[C@H](CCCNC(=N)N)NC(=O)[C@H](CCCCN)NC(=O)[C@H](CCCCN)NC(C)=O)C(C)C)C(=O)N[C@@H](Cc3ccccc3)C(=O)N[C@@H](CCCCN)C(=O)N[C@@H](CC(C)C)C(=O)N2)C(=O)N[C@@H](Cc2ccc(O)cc2)C(=O)N[C@@H](Cc2c[nH]c3ccccc23)C(=O)N[C@@H](CCCNC(=N)N)C(=O)N1)C(C)C)C(N)=O (Ac-KKRVKKR[S5]FKL[S5]K[S5]YWR[S5]LKKPV[X2]-NH2; staple (Z) 8-12, 14-18) | 2.5 µg/mL (≈ 0.729 µM) | 82.2 µg/mL | 2.6 µg/mL (≈ 0.758 µM) | 2.5 µg/mL (≈ 0.729 µM) | 2.4 µg/mL (≈ 0.699 µM) |
| CC(=O)N[C@@H](CC(C)C)C(=O)N[C@@H](CCCCN)C(=O)N[C@@H](CCCNC(=N)N)C(=O)N[C@H](C(=O)N[C@@H](Cc1c[nH]c2ccccc12)C(=O)N[C@@H](CCCCN)C(=O)N[C@@H](CCCNC(=N)N)C(=O)N[C@H](C(=O)N[C@@H](Cc1ccccc1)C(=O)N[C@@H](CCCCN)C(=O)N[C@@H](CC(C)C)C(=O)N[C@@H](CC(C)C)C(=O)N[C@@H](CCCCN)C(=O)N[C@@]1(C)CCC/C=C\CCC[C@@](C)(C(=O)N[C@@H](CC(C)C)C(=O)N[C@@H](CCCCN)C(=O)N[C@@H](CCCCN)C(=O)N2CCC[C@H]2C(=O)N[C@H](C(=O)N[C@@H](CCCNC(=N)N)C(N)=O)C(C)C)NC(=O)[C@H](CCCNC(=N)N)NC(=O)[C@H](CCCCN)NC(=O)[C@H](Cc2ccc(O)cc2)NC1=O)C(C)C)C(C)C (Ac-LKRVWKRVFKLLK[S5]YKR[S5]LKKPVR-NH2; staple (Z) 14-18) | 4.9 µg/mL (≈ 1.54 µM) | 21 µg/mL | 5 µg/mL (≈ 1.57 µM) | 38 µg/mL (≈ 12 µM) | 4.7 µg/mL (≈ 1.48 µM) |
| CC(=O)N[C@@H](CCCCN)C(=O)N[C@@H](CCCCN)C(=O)N[C@@H](CCCNC(=N)N)C(=O)N[C@H](C(=O)N[C@@H](CCCCN)C(=O)N[C@@H](CCCCN)C(=O)N[C@@H](CCCNC(=N)N)C(=O)N[C@@]1(C)CCC/C=C\CCC[C@@](C)(C(=O)N[C@@H](CCCCN)C(=O)N[C@@]2(C)CCC/C=C\CCC[C@@](C)(C(=O)N[C@@H](CC(C)C)C(=O)N[C@@H](CCCCN)C(=O)N[C@@H](CCCCN)C(=O)N3CCC[C@H]3C(=O)N[C@H](C(=O)N[C@@H](CCCNC(=N)N[C@@H]3O[C@H](CO)[C@@H](O[C@H]4O[C@H](CO)[C@@H](O[C@H]5O[C@H](CO)[C@@H](O)[C@H](O)[C@H]5O)[C@H](O)[C@H]4O)[C@H](O)[C@H]3O)C(N)=O)C(C)C)NC(=O)[C@H](CCCNC(=N)N)NC(=O)[C@H](Cc3c[nH]c4ccccc34)NC(=O)[C@H](Cc3ccc(O)cc3)NC2=O)NC(=O)[C@H](CC(C)C)NC(=O)[C@H](CCCCN)NC(=O)[C@H](Cc2ccccc2)NC1=O)C(C)C (Ac-KKRVKKR[S5]FKL[S5]K[S5]YWR[S5]LKKPV[X1]-NH2; staple (Z) 8-12, 14-18) | 1.1 µg/mL (≈ 0.296 µM) | 80.8 µg/mL | 2.6 µg/mL (≈ 0.7 µM) | 1.1 µg/mL (≈ 0.296 µM) | 1.1 µg/mL (≈ 0.296 µM) |
